How the values were obtained:
RD cells [1] = experiment: MTT cell viability assay, RD; assay type: cell-based, human; details: RD (eRMS), 48 h
Protocol: (§1) RH30 human aRMS cells (kindly provided by Associate Professor Judith Davie, Southern Illinois University), AX-OH-1 human aRMS and FL-OH-1 human eRMS cells (kindly provided by Professor Stefan Bath, University of Cape Town) were cultured in Roswell Park Memorial Institute Medium (RPMI)-1640 (Sigma Aldrich, Missouri, USA). […] Cell morphology was monitored using an Olympus CKX41 inverted microscope (MSAC Ltd, UK) and imaged with an EVOS™ XL AMEX1000 Core Imaging System (Thermo Fisher Scientific, Massachusetts, USA).
(§2) Cells were seeded in 96-well plates and treated the next day with a range of AJ-5 concentrations (0.1–1.0 μM) or vehicle ([…]) for 48 h. Cell viability was measured using the 3-(4,5-dimethylthiazol-2-yl)-2,5-diphenyl-trazolium bromide (MTT) assay (11465007001; Sigma Aldrich) according to the manufacturer’s instructions. Mean cell viability was calculated as a percentage of the mean vehicle control. At least three independent experiments in quadruplicate were performed from which the half maximal inhibitory concentration (IC50) was determined using GraphPad Prism version 6.0 (GraphPad Software, California, USA). The selectivity index (SI) was determined by dividing the IC50 of a normal cell line by the IC50 of a cancer cell line.

[2] = test system: RMS cells (RH30, AX-OH-1, RD, FL-OH-1); experiment: Scratch motility assay, RMS cells; assay type: cell-based, human; details: 24 h pre-treatment at IC50, all RMS cells tested
Protocol: Cells were seeded in 6-well plates and treated with IC50 AJ-5 and vehicle for 24 h. Cells were then collected, counted and replated to achieve 100% confluency in a 24-well plate. The following day a sterile 2 µL pipette tip was used to make a vertical scratch in the cell monolayer of each well and the cells treated with 10 µM mitomycin C (M4287; Sigma Aldrich) to inhibit proliferation. Cells were imaged at 0, 3, 6, 9, 12 and 24 h post wound formation and ImageJ v1.50i[58] was used to calculate the area of the scratch. The total areas migrated was determined by subtracting the area for a specific time point from the area measured at 0h.

aRMS and eRMS cells = experiment: MTT cell viability assay, RMS cell lines (summary statements); assay type: cell-based, human; details: alveolar and embryonal RMS cells
Protocol: as §1, §2

RH30 and RD cells = experiment: Annexin V-FITC/PI assay; assay type: cell-based, human; details: IC50
Protocol: Cells were seeded, trypsinized, washed and counted as described for cell cycle analysis. The FITC Annexin V/Dead Cell Apoptosis kit (V13242; Thermo Fisher Scientific) was used according to the manufacturer's instructions. A negative control of unstained cells and positive controls of cells treated with 3% formaldehyde for 30 min on ice and stained with either PI or Annexin V were used to gate the flow cytometer for viable, early apoptotic, late apoptotic, and necrotic cell populations. Samples were subjected to FACS analyses as described for cell cycle analysis. Data were obtained and analysed using CellQuest Pro version 5.2.1. software.

RD cells [3] = experiment: Single-cell autophagosome flux analyses; assay type: cell-based, human; details: IC50 48 h
Protocol: The autophagosome flux was calculated from the rate of autophagosome accumulation as previously described. Briefly, this was determined after the complete inhibition of fusion between autophagosomes and lysosomes using 400 nM bafilomycin A1 (B0025; LKT Laboratories Inc., Minnesota, USA).
Cells were transfected with a GFP-LC3 construct using Lipofectamine 3000 (L3000001; Thermo Fisher Scientific) according to the manufacturer’s instructions and maintained for 2 days in order to achieve high levels of GFP-LC3 expression.
Autophagosome, autolysosome and lysosome pool size was assessed by supplementing the culture media with 25 nM LysoTracker Red (L7528; Thermo Fisher Scientific) 2 h prior to image acquisition. An LSM 780 confocal with ELYRA S.1 Superresolution platform (Carl Zeiss) was used for image acquisition. The eight-chamber dish was placed in a heated chamber maintained at 5% CO2 that encased the microscope objective. An LCI Plan-Apochromat ×63/1.4 oil DIC M27 objective was used and samples were excited with an Argon multiline laser 25 mW at 488 and 514 nm with appropriate beam splitters and GaAsP detector 32+2 PMT. Multiple z layers were acquired with […] step width. Laser power and electron gain were set to achieve an optimal signal to noise ratio without causing photo-toxicity. […]

RH30 cells = experiment: MTT cell viability assay, RH30; assay type: cell-based, human; details: RH30 (aRMS), 48 h
Protocol: as §1, §2

[4] = test system: RMS cells (RH30, AX-OH-1, RD, FL-OH-1); experiment: Clonogenic assay, RMS cells; assay type: cell-based, human
Protocol: Cells were seeded in 6-well plates and treated the following day with IC50, ½ IC50, ¼ IC50 AJ-5 and vehicle. After 24 h, 800–4000 cells were seeded in 35 mm dishes in drug-free medium. Formation of colonies were monitored and after 7–21 days cells were fixed with 3:1 methanol:acetic acid and stained with 0.5% crystal violet (Sigma Aldrich) in 100% methanol. Colonies were imaged and percentage colony area was determined using ImageJ v1.50i[58] and the plugin ColonyArea[59]. Colony area was determined for each drug concentration and expressed as a percentage of vehicletreated control.

FL-OH-1 cells = experiment: MTT cell viability assay, FL-OH-1; assay type: cell-based, human; details: FL-OH-1 (eRMS), 48 h
Protocol: as §1, §2

[5] = test system: phosphorylated RIP3 and MLKL; experiment: Western blot of necroptosis markers (preliminary, data not shown); assay type: cell-based
HT1080 cells = experiment: MTT cell viability assay, HT1080 fibrosarcoma; assay type: cell-based, human; details: 48 h

Compound: CC(C)c1cccc(C(C)C)c1[N+]1=Cc2cccc[c]2[Pd-2]1([Cl])[P+](CC[P+](c1ccccc1)(c1ccccc1)[Pd-2]1([Cl])[c]2ccccc2C=[N+]1c1c(C(C)C)cccc1C(C)C)(c1ccccc1)c1ccccc1 (stereo not drawn) [AJ-5]
- IC50 (RD cells [1]): ≤ 200 nM
- Migratory ability (area migrated) [2]: reduced the migratory ability
- IC50 (aRMS and eRMS cells): ≤ 200 nM
- Cell death (Annexin V-FITC/PI) (RH30 and RD cells): induces apoptotic and necrotic cell death
- Autolysosome pool size and autophagosome flux J (RD cells [3]): significantly decreased
- IC50 (RH30 cells): ≤ 200 nM
- Colony formation at IC50 concentrations ([4]; 24 h treatment at IC50, colonies after 7–21 days): only a few or no RMS cell colonies formed
- Ability of RMS cells to survive and proliferate (colony area) ([4]; 24 h treatment with ¼ IC50, ½ IC50 or IC50, colonies after 7–21 days): significantly inhibits the ability of RMS cells to survive and proliferate
- IC50 (FL-OH-1 cells): ≤ 200 nM
- Active (phosphorylated) MLKL [5]: increased levels
- Phosphorylated RIP3 [5]: increase
- IC50 (HT1080 cells): < 300 nM
